Laboratory results: article PMC7567103 (Nature Communications, 2020)
pIC50: −log10 of the molar value.

Tests used:
[1] = target: T1, GHRHR(23-405)-15AA-LgBiT-2MBP (Homo sapiens, UniProt Q02643); test: whole cell binding, competitive inhibition of 125I-GHRH (Supplementary Fig. 2c); details: competition with 80 pM 125I-GHRH; whole HEK 293T cells, RT 3 h; mean ± SEM, n = 7-8
T1 construct: 24 h after transfection with GHRHR(23-423), GHRHR(23-405), GHRHR(23-405)-LgBiT-2MBP, or HA-Flag-GHRHR (WT and mutants); HA signal peptide (replaces native signal M1-G22) (N); expressed in transfected cells; host or cells: HEK 293 T
T1 sequence (Q02643 23-405): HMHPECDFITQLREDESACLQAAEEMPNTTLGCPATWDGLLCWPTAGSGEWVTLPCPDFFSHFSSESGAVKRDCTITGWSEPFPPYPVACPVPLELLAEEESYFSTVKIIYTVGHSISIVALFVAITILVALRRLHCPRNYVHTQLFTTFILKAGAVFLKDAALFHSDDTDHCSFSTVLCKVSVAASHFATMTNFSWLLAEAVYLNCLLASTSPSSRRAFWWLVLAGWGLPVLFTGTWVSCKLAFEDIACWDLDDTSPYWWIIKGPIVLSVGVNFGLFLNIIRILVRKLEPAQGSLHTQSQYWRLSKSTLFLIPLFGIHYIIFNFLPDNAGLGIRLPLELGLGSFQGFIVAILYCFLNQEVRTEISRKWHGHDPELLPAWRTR
Method: (§1) This assay was conducted in 96-well Iso-plates (PerkinElmer) coated with poly-D-lysine hydrobromide (Sigma-Aldrich). Twenty-four hour after transfection with GHRHR(23-423) or GHRHR(23-405)-LgBiT-2MBP, HEK 293 T cells were washed twice, and incubated with blocking buffer (DMEM medium supplemented with 33 mM HEPES, and 0.1% (w/v) BSA, pH 7.4) for 2 h at 37 °C. Then, radiolabeled ^125I-GHRH (80 pM, Phoenix Biotech) and seven decreasing concentrations of unlabeled peptide (10 μM, […]) were added and competitively reacted with the cells in binding buffer (PBS supplemented with 10% (w/v) BSA, pH 7.4) at RT for 3 h. Cells were washed with ice-cold PBS and lysed by 50 μL lysis buffer (PBS supplemented with 20 mM Tris-HCl and 1% (v/v) Triton X-100, pH 7.4). Finally, 150 μL of scintillation cocktail (OptiPhase SuperMix, PerkinElmer) was employed and radioactivity (counts per minute) read in a scintillation counter (MicroBeta[2] plate counter, PerkinElmer).
(§2) 93 of transfection. Data are normalized by the WT receptor and fitted with a three-
(§3) 94 parameter logistic equation. All values are means ± S.E.M. of at least three […]
(§4) Binding affinity is quantified by
(§5) 97 reduction of radioactivity (counts per minute, CPM) and normalized to the […]
(§6) 231 Binding data were analyzed using a three-parameter logistic equation to […]
(§7) 234 determine statistical difference. *P<0.01; ND, not determined.

GHRHR(23-423) (WT) = target: T2, GHRHR(23-423) (WT) (Homo sapiens, UniProt Q02643); test: as above; details: competition with 80 pM 125I-GHRH; whole HEK 293T cells, RT 3 h; mean ± SEM, n = 7-8
T2 construct: 24 h after transfection with GHRHR(23-423), GHRHR(23-405), GHRHR(23-405)-LgBiT-2MBP, or HA-Flag-GHRHR (WT and mutants); HA signal peptide (replaces native signal M1-G22) (N); expressed in transfected cells; host or cells: HEK 293 T
T2 sequence (Q02643 23-423): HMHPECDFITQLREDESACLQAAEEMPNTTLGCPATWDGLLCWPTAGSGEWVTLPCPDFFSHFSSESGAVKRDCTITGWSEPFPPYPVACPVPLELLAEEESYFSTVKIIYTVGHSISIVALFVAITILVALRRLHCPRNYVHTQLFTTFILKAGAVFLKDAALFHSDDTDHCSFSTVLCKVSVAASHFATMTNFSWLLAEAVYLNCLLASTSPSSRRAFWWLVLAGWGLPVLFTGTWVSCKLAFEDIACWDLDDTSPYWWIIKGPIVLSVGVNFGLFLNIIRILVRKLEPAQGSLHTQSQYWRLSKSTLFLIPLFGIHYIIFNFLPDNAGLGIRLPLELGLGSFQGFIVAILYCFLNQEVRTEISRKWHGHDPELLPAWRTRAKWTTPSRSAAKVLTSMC
Method: as §1, §2, §3, §4, §5, §6, §7

With `CC[C@H](C)[C@H](NC(=O)[C@H](C)NC(=O)[C@H](CC(=O)O)NC(=O)[C@H](C)NC(=O)[C@@H](N)Cc1ccc(O)cc1)C(=O)N[C@@H](Cc1ccccc1)C(=O)N[C@H](C(=O)N[C@@H](CC(N)=O)C(=O)N[C@@H](CO)C(=O)N[C@@H](Cc1ccc(O)cc1)C(=O)N[C@@H](CCCNC(=N)N)C(=O)N[C@@H](CCCCN)C(=O)N[C@H](C(=O)N[C@@H](CC(C)C)C(=O)NCC(=O)N[C@@H](CCC(N)=O)C(=O)N[C@@H](CC(C)C)C(=O)N[C@@H](CO)C(=O)N[C@@H](C)C(=O)N[C@@H](CCCNC(=N)N)C(=O)N[C@@H](CCCCN)C(=O)N[C@@H](CC(C)C)C(=O)N[C@@H](CC(C)C)C(=O)N[C@@H](CCC(N)=O)C(=O)N[C@@H](CC(=O)O)C(=O)N[C@H](C(=O)N[C@@H](CCSC)C(=O)N[C@@H](CO)C(=O)N[C@@H](CCCNC(=N)N)C(=O)N[C@@H](CCC(N)=O)C(=O)N[C@@H](CCC(N)=O)C(=O)NCC(=O)N[C@@H](CCC(=O)O)C(=O)N[C@@H](CO)C(=O)N[C@@H](CC(N)=O)C(=O)N[C@@H](CCC(N)=O)C(=O)N[C@@H](CCC(=O)O)C(=O)N[C@@H](CCCNC(=N)N)C(=O)NCC(=O)N[C@@H](C)C(=O)N[C@@H](CCCNC(=N)N)C(=O)N[C@@H](C)C(=O)N[C@@H](CCCNC(=N)N)C(=O)N[C@@H](CC(C)C)C(N)=O)[C@@H](C)CC)C(C)C)[C@@H](C)O` [GHRH, Growth hormone-releasing hormone] as the compound, how does the pIC50 [1] read?
Its pIC50 is 9.06.

What about the pIC50 (GHRHR(23-423) (WT)) of the same compound?
The pIC50 was 8.56.
